How the values were obtained:
[1] = test system: metastatic colorectal carcinoma (CRC); assay: NO16966 first-line metastatic CRC trial, PFS and OS stratified by 22-gene VDV signature; assay type: in vivo, human
Method: Sections from archival tumor samples from patients enrolled in the XELOX treatment arms of NO 16966 were evaluated by a pathologist and high tumor content area macro-dissected for subsequent RNA isolation using the FFPE RNA isolation kit (Roche; 7-10 sections per patient). RNA levels were assessed after cDNA synthesis following standard techniques, with the qPCR protocol on the Fluidigm Biomark platform according to the manufacturer's protocol.
Quantitative histological data from various animal experiments were plotted using Microsoft Excel software. Student's t test was applied to compare data sets of interest and differences with p values <0.05 were considered significant. 103 biopsies out of 1017 patients from the XELOX (capecitabine and oxaliplatin)-containing arm in the NO16966 trial were analyzed for the gene expression of VDV genes. qRT-PCR values were normalized by the housekeeping genes and relative to a universal reference sample to derive delta-delta Ct values. Subsequently, the delta-delta Ct value of each of the 22 VDV genes was mean centered and variance scaled to a Z-score.
For each sample i for which all of the VDV genes were analyzed, a VDV signature score (VDVi) was calculated. The VDVi represents a weighted average of z-scores across the analyzed VDV genes and is given by the algorithm:
wherein Zg,i is the standardized z-score of the qRT-PCR value for gene g of sample i and n, in this instance, is 22. The VDVi value provides quantitative information regarding the extent to which the expression of a particular set of genes is collectively overexpressed or underexpressed relative to a centered mean.
To compare the clinical outcomes (PFS and OS) between marker and/or treatment subgroups, log-rank tests and Cox regression were used, with median time calculated by the Kaplan-Meier analysis. All statistical tests were two-sided.
To test if VDV gene expression could correlate with clinical outcomes, we analyzed VDV gene expression levels in available pre-treatment archival tumor tissue from 103 patients (biomarker evaluable subpopulation) that were enrolled in the XELOX-containing arms. Due to the limited quality and amount of RNA from these clinical samples, gene expression was analyzed in a previously designed and validated “angiogenesis” Fluidigm qRT-PCR chip (FIG. 8B) that included 4 different housekeeping genes (for gene expression normalization), VEGF (as a control), and 22 representative proximal and distal VDV genes comprising: (i) pan-vascular markers such as CD31, CD34, and VE-CADH as indicators of MVD; (ii) key VEGF pathway components and proxVDV genes, including VEGFR-1, VEGFR-2, VEGFR-3, EPHRINB2, NRPs, ESM1, NID2, COL4a2, and LAMA4a; and (iii) additional VDV genes that are components of endothelial signaling pathways and potential modulators of VDV biology, including DLL-4, NOTCH1, ALK1, and EGFL7 (see FIG. 9A for validation of this compacted 22 VDV gene signature).
In these patients, the addition of bevacizumab to chemotherapy provided a statistically significant PFS (HR, 0.59; 95% CI, 0.37 to 0.93; p=0.024) and OS benefit (HR, 0.45; 95% CI, 0.23 to 0.85; p=0.015). […] We then tested the correlation between clinical outcomes and “high” or “low” pre-treatment gene expression. […] In contrast, in “VDV high” patients (FIG. 8D, solid lines), the addition of bevacizumab to chemotherapy vs chemotherapy alone provided a marked and significant PFS(HR, 0.36; 95% CI, 0.17 to 0.77; p=0.0079) and OS (HR, 0.31; 95% CI, 0.11 to 0.93; p=0.036) benefit. […] Thus, in this relatively small 103-patient sample set, the higher expression of a collective VDV gene subset correlates specifically with the improved clinical outcome provided by bevacizumab addition to chemotherapy, and has a predictive effect with respect to PFS.

[2] = test system: VDV signature genes in Human Inflammatory Breast Cancer; settings: 19 inflammatory breast cancer patients; one dose as single agent; 21 days post-treatment; published micro-array data; cited from earlier work
[3] = test system: metastatic colorectal carcinoma (CRC); settings: cited from earlier work
[4] = addition to oxaliplatin-based chemotherapy, Saltz et al. 2008

Substance: bevacizumab: recombinant humanized anti-VEGF monoclonal antibody generated according to Presta et al. (1997)
- PFS HR ([1]; 103 biomarker evaluable patients, addition to chemotherapy (XELOX) vs chemotherapy, 95% CI 0.37 to 0.93, p=0.024): 0.59
- OS HR ([1]; 103 biomarker evaluable patients, addition to chemotherapy (XELOX), 95% CI 0.23 to 0.85, p=0.015): 0.45
- OS HR ([1]; "VDV high" patients, 95% CI 0.11 to 0.93, p=0.036): 0.31
- PFS HR ([1]; "VDV high" patients, addition to chemotherapy vs chemotherapy alone, 95% CI 0.17 to 0.77, p=0.0079): 0.36
- OS HR ([1]; "VDV low" patients, 95% CI 0.25 to 1.33, p=0.2): 0.58
- PFS HR ([1]; "VDV low" patients, combination with chemotherapy vs chemotherapy alone, 95% CI 0.47 to 1.62, p=0.67): 0.88
- VDV transcripts post-treatment vs pre-treatment biopsies [2]: clear down regulation of VDV transcripts
- OS differences (secondary endpoint), whole NO16966 study [3, 4]: did not reach statistical significance
- PFS (primary endpoint), whole NO16966 study [3, 4]: significantly improved
- PFS and OS in metastatic CRC ([3]; in combination with chemotherapy, Hurwitz et al. 2004): increase progression free survival (PFS) and overall survival (OS)

— patent US20130216533A1, “BIOLOGICAL MARKERS FOR IDENTIFYING PATIENTS FOR TREATMENT WITH VEGF ANTAGONISTS” (Genentech, Inc., priority 2012, published 2013)
